Read-outs that look alike come from different tables or passages of the source.
Key:
[1] = target: T1, human ETA receptor (Homo sapiens, UniProt P25101); test: Test on Inhibition of Binding of Endothelin (ET-1) to Human ETA Receptor
T1 sequence (P25101 21-427): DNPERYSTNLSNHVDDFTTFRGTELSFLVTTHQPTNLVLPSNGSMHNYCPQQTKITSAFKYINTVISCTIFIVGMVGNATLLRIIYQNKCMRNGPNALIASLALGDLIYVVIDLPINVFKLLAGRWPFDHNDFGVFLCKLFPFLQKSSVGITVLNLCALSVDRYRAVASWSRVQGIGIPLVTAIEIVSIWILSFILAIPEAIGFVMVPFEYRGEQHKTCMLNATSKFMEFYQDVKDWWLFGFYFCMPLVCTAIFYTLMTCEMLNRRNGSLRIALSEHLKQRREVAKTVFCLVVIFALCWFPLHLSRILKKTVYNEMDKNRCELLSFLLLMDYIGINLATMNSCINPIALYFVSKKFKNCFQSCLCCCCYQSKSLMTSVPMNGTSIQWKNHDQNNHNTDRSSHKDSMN
Description: (1) Test on Inhibition of Binding of Endothelin (ET-1) to Human ETA Receptor
cDNA of human ETA receptor was obtained from mRNA of human lung by means of an RT-PCR and then transferred into pEF-BOS, a vector for expression, to prepare plasmid. The prepared plasmid was added to a culture of COS-1 cells (cell strain derived from renal cells of African green monkey) with DEAE-dextran and cDNA of human ETA was transfected to COS-1 cells. Then it was incubated for three days in a conventional DMEM (containing 10% of FBS) and the COS-1 cells recovered therefrom were suspended in a hypotonic buffer (10 mM Tris-HCl and 5 mM EDTA; pH 7.4) followed by homogenizing the cells using a Polytron. The suspension in which the cells were homogenized was subjected to an ultracentrifugation (100,000G for 30 minutes at 4° C.), the resulting precipitate (cell membrane fraction) was re-suspended in a Tris buffer (50 mM Tris-HCl and 10 mM MgCl2; pH 7.4) and the suspension was preserved by freezing at -80° C. (protein amount: about 1 mg/ml).
In conducting the experiment of binding the receptor, the frozen cell membrane sample was melted and resuspended in an incubation buffer (50 mM Tris-HCl, 10 mM MgCl2 and 0.01% bovine serum albumin; pH 7.4). The membrane suspension (200 μl) containing 1.25 μg as a membrane protein, 25 μl of an incubation buffer containing a test compound in various concentrations and 25 μl of [^125 I] ET-1 (specific activity: 2,200 Ci/mM; final concentration: […]) were incubated together at 25° C. for three hours and then filtered through a glass fiber filter using a Brandel cell harvester. Measurement of radioactivity on the glass fiber filter was conducted by means of a gamma-counter (counting efficiency: 81%). Nonspecific binding was determined by the use of a test buffer containing 0.1 μM of ET-1. Inhibiting activity of the test compound to [^125 I] ET-1 was calculated as a concentration (IC50) necessary for inhibiting 50% of the specific binding.

[2] = system: big ET-1-induced pressor responses; test: Test on Inhibition of Big ET-1-induced Pressor Responses in Pithed Rats; assay type: in vivo, male Wistar rats; details: Rattus norvegicus, 0.5 h, read-out: DR2
Description: (3) Test on Inhibition of Big ET-1-induced Pressor Responses in Pithed Rats
Male Wistar rats (body weight: […]) were anesthetized by sodium pentobarbital (60 mg/kg, i.p.) and a cannula for artificial ventilation was inserted into a trachea. Spinal cord was broken by inserting a rod made of steel thereinto and then the rat was connected to an artificial respirator. A catheter for measuring the systemic arterial blood pressure was inserted into a carotid artery while another catheter for administering big ET-1 was inserted into a femoral vein. After 30 minutes from the oral administration of a test compound at doses of 0.1 to 10 mg/kg, the rat was pithed and then big ET-1 was intravenously administered at doses of 0.1 to 3.2 nmol/kg in a cumulative manner. Activity of the test compound was evaluated by the dose (DR2 value) whereby the dose-response curve of pressor responses by big ET-1 to the right hand direction to an extent of two-fold.

[3] = inhibition of [^125 I] ET-1 specific binding, COS-1 cell membranes expressing human ETA, pH 7.4, 25° C., three hours, read-out: IC50
[4] = oral administration 30 minutes before pithing, dose shifting big ET-1 pressor dose-response curve two-fold to the right

SMILES	IC50 [1, 3]	other results
COc1ccccc1Oc1c(NS(=O)(=O)C(C)=Cc2ccccc2)nc(-c2ncccn2)nc1OC [Example 37, N-[6-Methoxy-5-(2-methoxyphenoxy)-2-(2-pyrimidinyl)-4-pyrimidinyl]-1-methyl-2-phenylethenesulfonamide]	1.6 nM	
CCC(=Cc1ccccc1)S(=O)(=O)Nc1nc(-c2ncccn2)nc(OC)c1Oc1ccccc1OC.[K] [Example 38, Potassium N-[6-methoxy-5-(2-methoxyphenoxy)-2-(2pyrimidinyl)-4-pyrimidinyl]-1-ethyl-2-phenylethenesulfonamidate]	3.3 nM	ED (2-fold shift) ([2]; po): 0.65 mg/kg
COc1ccccc1Oc1c(NS(=O)(=O)C=Cc2ccccc2)nc(-c2ccoc2)nc1OC [Example 34, N-[6-Methoxy-5-(2-methoxyphenoxy)-2-(3-furyl)-4-pyrimidinyl]-2-phenylethenesulfonamide]	9.7 nM	
COc1ccccc1Oc1c(NS(=O)(=O)C=Cc2ccccc2)nc(-c2ncccn2)nc1OCCO [Example 1, potassium N-[6-(2-hydroxyethoxy)-5-(2-methoxyphenoxy)-2-(2-pyrimidinyl)-4-pyrimidinyl]-2-phenylethenesulfonamidate]	1.6 nM	
COc1cc(OC)cc(-c2nc(NS(=O)(=O)C=Cc3ccccc3)c(Oc3ccccc3OC)c(OC)n2)c1 [Example 22, N-[2-(3,5-Dimethoxyphenyl)-6-methoxy-5-(2-methoxyphenoxy)-4-pyrimidinyl]-2-phenylethenesulfonamide]	9.5 nM	
COc1ccccc1Oc1c(NS(=O)(=O)C=Cc2ccccc2)nc(-c2csc(C)n2)nc1OC [Example 33, N-[6-Methoxy-5-(2-methoxyphenoxy)-2-(2-methyl-4-thiazolyl)-4-pyrimidinyl]-2-phenylethenesulfonamide]	7.7 nM	
COc1ccccc1Oc1c(NS(=O)(=O)C=Cc2ccccc2)nc(-c2ccncc2)nc1OC [Example 27, N-[6-Methoxy-5-(2-methoxyphenoxy)-2-(4-pyridyl)-4-pyrimidinyl]-2-phenylethenesulfonamide]	5.9 nM	
C#CCOc1nc(-c2ncccn2)nc(NS(=O)(=O)C=Cc2ccccc2)c1Oc1ccccc1OC [Example 13, N-[6-(2-propynyloxy)-5-(2-methoxyphenoxy)-2-(2-pyrimidinyl)-4-pyrimidinyl]-2-phenylethenesulfonamide]	5.5 nM	
COc1ccccc1Oc1c(NS(=O)(=O)c2ccc(C(C)(C)C)cc2)nc(-c2ncccn2)nc1OCCO [Comparative Compound, Bosentan, reference compound]		ED (2-fold shift) [2, 4]: 32 mg/kg
COc1ccccc1Oc1c(NS(=O)(=O)C=Cc2ccccc2)nc(-c2ccsc2)nc1OC [Example 32, N-[6-Methoxy-5-(2-methoxyphenoxy)-2-(3-thienyl)-4-pyrimidinyl]-2-phenylethenesulfonamide]	5.1 nM	
COc1ccccc1Oc1c(NS(=O)(=O)C=Cc2ccccc2)nc(-c2ncccn2)nc1OC [Example 2, N-[6-methoxy-5-(2-methoxyphenoxy)-2-(2-pyrimidinyl)-4-pyrimidinyl]-2-phenylethenesulfonamide]		IC50 [1]: 3.1 nM; ED (2-fold shift) ([2]; po): 0.61 mg/kg

Further lines, with some results ahead:

IC50 [1, 3]	SMILES	other results
4.8 nM	COCCOc1nc(-c2ncccn2)nc(NS(=O)(=O)C=Cc2ccccc2)c1Oc1ccccc1OC [Example 6, N-[6-(2-Methoxyethoxy)-5-(2-methoxyphenoxy)-2-(2-pyrimidinyl)-4-pyrimidinyl]-2-phenylethenesulfonamide]	
3 nM	COc1ccccc1Oc1c(NS(=O)(=O)C=Cc2ccccc2Cl)nc(-c2ncccn2)nc1OC [Example 47, N-[6-Methoxy-5-(2-methoxyphenoxy)-2-(2-pyrimidinyl)-4-pyrimidinyl]-2-(2-chlorophenyl)ethenesulfonamide]	
1.5 nM	COc1ccccc1Oc1c(NS(=O)(=O)C=Cc2cccs2)nc(-c2ncccn2)nc1OC [Example 42, N-[6-Methoxy-5-(2-methoxyphenoxy)-2-(2-pyrimidinyl)-4-pyrimidinyl]-2-(2-thienyl)ethenesulfonamide]	ED (2-fold shift) [2, 4]: 1.85 mg/kg
2.8 nM	COc1ccccc1Oc1c(NS(=O)(=O)C=Cc2ccc(C)cc2)nc(-c2ncccn2)nc1OC [Example 39, N-[6-Methoxy-5-(2-methoxyphenoxy)-2-(2-pyrimidinyl)-4-pyrimidinyl]-2-(4-methylphenyl)ethenesulfonamide]	
2.9 nM	COc1ccccc1Oc1c(NS(=O)(=O)C=Cc2ccccc2)nc(-c2ncccn2)nc1OCCF [Example 8, N-[6-(2-fluoroethoxy)-5-(2-methoxyphenoxy)-2-(2-pyrimidinyl)-4-pyrimidinyl]-2-phenylethenesulfonamide]	
4.4 nM	COc1ccccc1Oc1c(NS(=O)(=O)C=Cc2ccc3ccccc3c2)nc(-c2ncccn2)nc1OC [Example 45, N-[6-Methoxy-5-(2-methoxyphenoxy)-2-(2-pyrimidinyl)-4-pyrimidinyl]-2-(2-naphthyl)ethenesulfonamide]	
